Results published in patent US12715844B2, “Compound, preparation method therefor, composition, kit and use thereof” (SIGNDO BIOTECHNOLOGY (SUZHOU) CO., LTD, priority 2023, dated 2026).
“And” between values parts separate entries of the source, which are not always exact repeats. Equal entries are not always repeated.

Legend:
22RV1 (PSMA+) [1] = assay: 2-hour ex vivo tissue distribution: fluorescence of tumor and in situ normal prostate; parameters: species or system mice; conditions: for discrimination capability (tumor vs normal prostate) compared with OTL78: relative to OTL78; for Prostate fluorescence / Tumor fluorescence / T/P Ratio: 2 h ex vivo, 10 nmol/mouse; for T/P Ratio: tumor to in situ normal prostate
Excerpt: (§1) The Prostate-specific membrane antigen (PSMA) is overexpressed on prostate cancer cells. The test compound is a PSMA-targeting molecule conjugated with a near-infrared region I dye. The test compound can bind to PSMA and “illuminate” cancer cells upon excitation by a near-infrared light source. In this experiment, the in vivo and ex vivo tissue distribution of the test compound in mice is detected using in vivo live imaging.
(§2) Matrigel was thawed on ice in advance, and the culture medium was pre-cooled on ice. After centrifugation, the cells were resuspended in the pre-cooled culture medium, followed by the addition of HC Matrigel gel in a volume equal to the culture medium. The centrifuge tube containing the cells was placed on ice and transferred to the animal facility. The cells were thoroughly dispersed before inoculation. The back of the neck was disinfected with an alcohol cotton ball, and a single intravenous administration was performed with an inoculation volume of 200 μL per mouse. All operations were performed on ice. When the tumor volume reached 300-400 mm^3, the mice were grouped for administration. Six mice with well-grown and regularly shaped tumors were selected into the group. The six mice were randomly divided into two groups: G1 (OTL78 10 nmol/mouse) and G2 (DGPR1008 10 nmol/mouse) with three mice in each group. The scanning time: 1, 2, 4, 8, 24, and 72 h.
(2) Results of 2-Hour Ex Vivo Tissue Distribution: Fluorescence Ratio of Tumor to In Situ Normal Prostate: […]

[2] = Pharmacokinetic parameters in rat plasma; assay type: in vivo; conditions: for clearance in rats in vivo, in words: compared with OTL78
22RV1 (PSMA+) [3] = assay: In vivo live imaging comparison with the existing product OTL78; parameters: species or system mice; conditions: for TBR (tumor-to-background ratio), in words: from about 2 h to 72 h; for fluorescence value at the tumor site compared with OTL78: mice, each time point; for TBR compared with OTL78: relative to OTL78; for TBR (mean) / fluorescence value at the tumor site: 10 nmol/mouse; for TBR (mean): 200 μL/mouse
Excerpt: (§3) “V” denotes the volume-to-mass ratio. […] Mice refer to BALB/c nude mice, 6-8 weeks old, weighing 18-20 g; rats refer to SD rats: 8 weeks old, approximately 250 g.
3. Comparison with the Existing Product OTL78
as §1
DGPR1008, 22RV1 (PSMA+), BALB/c nude mouse, 1640 culture medium, FBS, double antibodies, trypsin, Matrigel (BD), vernier caliper, centrifuge, IVIS live imager.
as §2
(1) Results and Data of In Vivo Live Imaging of Drug Efficacy (Mice were Used as Experimental Subjects in this Part)

[4] = Acute toxicity experiment on rats; conditions: three dose groups of high, medium and low doses
22RV1 (PSMA+) [5] = assay: Drug efficacy validation by in vivo live imaging, three dose groups; parameters: species or system mice; conditions: for targeting properties: 22RV1 tumor mice, in vivo live imaging; for enrichment in the prostate cancer tumor site: high, medium and low doses (25, 50, 100 nmol/mouse), scans 1-48 h
Excerpt: as §3
2. Drug Efficacy Validation Experiment Using In Vivo Live Imaging
Prostate-specific membrane antigen (PSMA) is overexpressed on prostate cancer cells. The test compound is a PSMA-targeting molecule conjugated with a near-infrared region I dye. The test compound can bind to PSMA and “illuminate” cancer cells upon excitation by a near-infrared light source. In this experiment, the in vivo tissue distribution of the test compound in mice is detected using in vivo live imaging.
DGPR1008, 22RV1 (PSMA+), PC3 (PSMA−), 1640 culture medium, FBS, double antibodies, trypsin, Matrigel (BD), vernier caliper, centrifuge, IVIS live imager.
Matrigel was thawed on ice in advance, and the culture medium was pre-cooled on ice. After centrifugation, the cells were resuspended in the pre-cooled culture medium, followed by the addition of HC Matrigel gel in a volume equal to the culture medium. The centrifuge tube containing the cells was placed on ice and transferred to the animal facility. The cells were thoroughly dispersed before inoculation. The right dorsal shoulder area of the mice was disinfected with an alcohol cotton ball, and a single intravenous administration was performed with an inoculation volume of 200 μL per mouse. All operations were performed on ice. When the tumor volume reached 300-400 mm^3, the mice were grouped for administration. Nine mice with well-grown and regularly shaped tumors were selected into the group. The nine mice were randomly divided into three groups: G1 (25 nmol/mouse), G2 (50 nmol/mouse), and G3 (100 nmol/mouse), with three mice in each group. The scanning time: 1, 2, 4, 8, 24, and 48 h.

PSMA receptor = molecular target: T1, PSMA receptor (Homo sapiens, UniProt Q04609); assay: Receptor binding detected by flow cytometry in vitro (competitive binding with DUPA-FITC); conditions: 22RV1 (PSMA+) cells, competition with 100 nmol/L DUPA-FITC
T1 construct: endogenous in cells; host or cells: 22RV1 (PSMA+); PC3 (PSMA−) as negative control
Excerpt: 1. Receptor Binding was Detected by Flow Cytometry In Vitro:
Prostate-specific membrane antigen (PSMA) is overexpressed on prostate cancer cells. Both DUPA-FITC and DGPR1008 are capable of targeting the PSMA receptor in prostate cancer cells, with the difference being that DUPA-FITC is connected to a visible light dye (Ex=495 nm, Em=520 nm), whereas DGPR1008 is connected to a near-infrared dye (Ex=776 nm, Em=793 nm). Since the majority types of lasers equipped in flow cytometers operate within the visible light spectrum, the binding affinity of DGPR1008 to the receptor can not be directly measured. Therefore, the competitive binding of DGPR1008 with DUPA-FITC to PSMA is employed to indirectly assess the binding affinity of the test compound to the receptor.
DGPR1008, DUPA-FITC, 22RV1 (PSMA+), PC3 (PSMA−), 1640 culture medium, FBS, double antibiotics, trypsin, centrifuge, 4° C. constant temperature incubator, flow cytometer.
Drug preparation: 100 nmol/L DUPA-FITC was prepared using culture medium. The test compound was diluted to nine concentrations (0.00098 μM, 0.002 μM, 0.008 μM, 0.01 μM, 0.03 μM, 0.05 μM, 0.09 μM, 0.1 μM, and 0.125 μM) using culture medium containing 100 nmol/L DUPA-FITC, with three replicate wells for each concentration.
Cell culture: The cells were seeded in T75 culture flasks. After 48 h, cells in the logarithmic growth phase were taken, digested with trypsin for 1-2 min, and the digestion was then terminated by adding fresh culture medium. After cell counting, the cells were transferred into a 96-well plate (1×10^5 cells/well), totaling 27 wells. The culture medium was discarded by centrifugation (800 rpm, 5 min), and the cells were washed twice with PBS and then centrifuged to collect the cell pellet. The prepared culture media with 9 concentrations were added to the cell-containing wells, with three replicates for each concentration. The cells were incubated at 4° C. in the dark for 30 min, and then the culture medium in the wells was discarded. Cells were washed by adding 300 μL of fresh culture medium (twice) and saline (once) to each well, followed by resuspension in 300 μL of saline for flow cytometry detection.

T1 sequence (Q04609 whole entry): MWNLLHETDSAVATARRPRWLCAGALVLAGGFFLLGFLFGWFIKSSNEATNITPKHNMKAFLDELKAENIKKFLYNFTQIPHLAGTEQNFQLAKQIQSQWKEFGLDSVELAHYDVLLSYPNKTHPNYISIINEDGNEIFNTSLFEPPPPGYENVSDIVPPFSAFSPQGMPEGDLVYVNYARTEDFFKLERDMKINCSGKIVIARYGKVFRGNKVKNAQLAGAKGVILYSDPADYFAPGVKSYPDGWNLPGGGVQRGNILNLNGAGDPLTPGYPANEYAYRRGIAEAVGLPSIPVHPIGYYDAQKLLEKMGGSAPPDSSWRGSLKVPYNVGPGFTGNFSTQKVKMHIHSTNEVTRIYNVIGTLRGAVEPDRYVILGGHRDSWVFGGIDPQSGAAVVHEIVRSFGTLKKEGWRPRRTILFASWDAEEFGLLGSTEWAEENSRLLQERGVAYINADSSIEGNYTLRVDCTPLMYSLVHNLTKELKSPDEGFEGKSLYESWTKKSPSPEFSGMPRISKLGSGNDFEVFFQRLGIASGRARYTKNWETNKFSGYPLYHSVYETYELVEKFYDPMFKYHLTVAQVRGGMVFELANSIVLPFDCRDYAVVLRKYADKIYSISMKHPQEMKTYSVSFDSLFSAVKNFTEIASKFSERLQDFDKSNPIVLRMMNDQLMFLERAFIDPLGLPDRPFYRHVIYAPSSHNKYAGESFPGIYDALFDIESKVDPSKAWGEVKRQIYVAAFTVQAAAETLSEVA

Structure (SMILES)	discrimination capability (tumor vs normal prostate) compared with OTL78 (22RV1 (PSMA+) [1])	clearance in rats in vivo, in words [2]	TBR (tumor-to-background ratio), in words (22RV1 (PSMA+) [3])	fluorescence value at the tumor site compared with OTL78 (22RV1 (PSMA+) [3])	TBR compared with OTL78 (22RV1 (PSMA+) [3])	toxic reactions in acute toxicity experiment [4]	targeting properties (22RV1 (PSMA+) [5])	enrichment in the prostate cancer tumor site (22RV1 (PSMA+) [5])	binding affinity to PSMA receptor (PSMA receptor)	also measured
CC1(C)C(=CC=C2CCCC(C=CC3=[N+](CCCCS(=O)(=O)[O-])c4ccc(S(=O)(=O)[O-])cc4C3(C)C)=C2Oc2ccc(CC(NC(=O)CCOCCOCCNC(=O)CCC(NC(=O)NC(CCC(=O)[O-])C(=O)[O-])C(=O)[O-])C(=O)[O-])cc2)N(CCCCS(=O)(=O)[O-])c2ccc(S(=O)(=O)[O-])cc21.[K+].[K+].[K+].[K+].[K+].[K+].[K+] (centres unmarked) [Example 12]	approximately 5 fold	cleared more rapidly	good TBR	greater fluorescence values at the tumor site than OTL78	higher TBR	no toxic reactions were observed	good targeting properties	enriched in the prostate cancer tumor site	good affinity	–
CC1(C)C(=CC=C2CCCC(C=CC3=[N+](CCCCS(=O)(=O)[O-])c4ccc(S(=O)(=O)[O-])cc4C3(C)C)=C2Oc2ccc(CC(NC(=O)CCOCCOCCNC(=O)CCC(NC(=O)NC(CCC(=O)[O-])C(=O)[O-])C(=O)[O-])C(=O)[O-])cc2)N(CCCCS(=O)(=O)[O-])c2ccc(S(=O)(=O)[O-])cc21.[Li+].[Li+].[Li+].[Li+].[Li+].[Li+].[Li+] (centres unmarked) [Example 13]	approximately 5 fold	cleared more rapidly	good TBR	greater fluorescence values at the tumor site than OTL78	higher TBR	no toxic reactions were observed	good targeting properties	enriched in the prostate cancer tumor site	good affinity	–
CC1(C)C(=CC=C2CCCC(C=CC3=[N+](CCCCS(=O)(=O)[O-])c4ccc(S(=O)(=O)[O-])cc4C3(C)C)=C2Oc2ccc(CC(NC(=O)CCOCCCOCCCNC(=O)CCC(NC(=O)NC(CCC(=O)[O-])C(=O)[O-])C(=O)[O-])C(=O)[O-])cc2)N(CCCCS(=O)(=O)[O-])c2ccc(S(=O)(=O)[O-])cc21.[Na+].[Na+].[Na+].[Na+].[Na+].[Na+].[Na+] (centres unmarked) [Example 31]	approximately 5 fold	cleared more rapidly	good TBR	greater fluorescence values at the tumor site than OTL78	higher TBR	no toxic reactions were observed	good targeting properties	enriched in the prostate cancer tumor site	good affinity	–
CC1(C)C(/C=C/C2=C(Oc3ccc(C[C@H](NC(=O)[C@H](Cc4ccccc4)NC(=O)CCOCCOCCNC(=O)CC[C@H](NC(=O)N[C@@H](CCC(=O)O)C(=O)O)C(=O)O)C(=O)O)cc3)C(=C/C=C3/N(CCCCS(=O)(=O)O)c4ccc(S(=O)(=O)O)cc4C3(C)C)/CCC2)=[N+](CCCCS(=O)(=O)[O-])c2ccc(S(=O)(=O)O)cc21 [OTL78, reference compound]	–	–	–	–	–	–	–	–	–	Prostate fluorescence (22RV1 (PSMA+) [1]; group mean): 3.27E+09 photon/second; Tumor fluorescence (22RV1 (PSMA+) [1]; group mean): 7.26E+09 photon/second; Prostate fluorescence (22RV1 (PSMA+) [1]; individual animal): 4.77E+08 photon/second and 8.11E+09 photon/second and 1.23E+09 photon/second; Tumor fluorescence (22RV1 (PSMA+) [1]; individual animal): 7.07E+09 photon/second and 1.01E+10 photon/second and 4.61E+09 photon/second; T/P Ratio (22RV1 (PSMA+) [1]; group mean): 6.61; T/P Ratio (22RV1 (PSMA+) [1]; individual animal): 14.8 and 1.25 and 3.75; average AUC0-t ([2]; rats, 2 mg/kg, plasma): 9429 ng·h/mL; average clearance ([2]; rats, 2 mg/kg, plasma): 3.50 mL/min/kg; TBR (mean) (22RV1 (PSMA+) [3]; 1 h): 1.30; TBR (mean) (22RV1 (PSMA+) [3]; 2 h): 1.35; TBR (mean) (22RV1 (PSMA+) [3]; 4 h): 1.38; TBR (mean) (22RV1 (PSMA+) [3]; 8 h): 1.36; TBR (mean) (22RV1 (PSMA+) [3]; 24 h): 1.55; TBR (mean) (22RV1 (PSMA+) [3]; 72 h): 1.65; fluorescence value at the tumor site (22RV1 (PSMA+) [3]; 1 h): 8.75E+09; fluorescence value at the tumor site (22RV1 (PSMA+) [3]; 2 h): 6.58E+09; fluorescence value at the tumor site (22RV1 (PSMA+) [3]; 4 h): 3.27E+09; fluorescence value at the tumor site (22RV1 (PSMA+) [3]; 8 h): 1.71E+09; fluorescence value at the tumor site (22RV1 (PSMA+) [3]; 24 h): 1.41E+09; fluorescence value at the tumor site (22RV1 (PSMA+) [3]; 72 h): 9.69E+08
